From patent US12024506B2, “Compounds” (Oxford University Innovation Limited, priority 2018, dated 2024) come the findings set out here.

The subject of experiment [1] is H358 cells (ATCC CRL-5807). As to the kind of experiment: Cell viability assay 1 (CellTiter-Glo), H358 cells. The class given is cell-based. The conditions noted are these: Homo sapiens, NCI-H358, 48 h, first value of the cell, read-out: Cell Viability H358 (concentration that decreases cell viability by 50%). An outline of the steps:
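H358 cells were grown in RPMI-1640 with 10% FCS and 2 mM L-glutamine, plated at 5000 cells/well and allowed to adhere overnight. Compound was added in 0.5% DMSO final for 48 h at 37° C. Viability was read by CellTiter-Glo luminescence, with the 50% viability-reducing concentration derived from dose-response curves.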

Experiment [2] relates to DLD1 cells (ATCC CCL-221). Put plainly: Cell viability assay 1 (CellTiter-Glo), DLD1 cells. The class given is cell-based. Particulars: Homo sapiens, DLD-1 cells, 48 h, second value of the cell, read-out: Cell Viability DLD-1 (concentration that decreases cell viability by 50%). An outline of the steps: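 DLD1 cells grown in RPMI-1640 with 10% FCS, 2 mM L-glutamine, 37 °C, 5% CO2, plated overnight then exposed to compound (0.5% DMSO) for 48 h. Viability by CellTiter-Glo luminescence; value is concentration reducing viability by 50% from dose-response curves.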

The target of experiment [3] is T1, GST-human KRas166 (G12V) GPPNHP (Homo sapiens, UniProt P01116, G12V).
T1 construct: made in house; host or cells: E. coli C41(DE3)
Put plainly: KRas small-molecule screening by SPR (Biacore T200). The class given is binding. Particulars: compound 100 uM, 5% DMSO buffer; immobilised GST-KRas166 (G12V) GPPNHP. An outline of the steps:
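Biacore T200 screen: compounds at 100 uM final in 5% DMSO buffer (100 mM NaCl, 5 mM MgCl2) over GPPNHP-bound GST-KRas166 G12V captured by anti-GST antibody (10,000–15,000 RU) versus GST-only channel. Expected 1:1 Rmax 63 RU; DMSO solvent correction applied.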

Molecules are shown by their SMILES. pIC50: −log10 of the molar value.

Consider `COc1nc(-c2cccc3c2OCCO3)ccc1Nc1cccc(CC(=O)N2CCN(C)CC2)c1` [Example 204, 2-{3-[6-(2,3-Dihydro-benzo[1,4]dioxin-5-yl)-2-methoxy-pyridin-3-ylamino]-phenyl}-1-(4-methyl-piperazin-1-yl)-ethanone], for which the pIC50 in experiment [1] is 4.70; in experiment [2], 4.75. In experiment [3], the “SPR Response Units” value is reported as 423 Response Units.
Taken in the same sequence, the figures for `COc1nc(-c2cccc3c2OCCO3)ccc1Nc1cccc(C(=O)NCC2CCC(=O)NC2)c1` (stereo not drawn) [Example 164, 3-[6-(2,3-Dihydro-benzo[1,4]dioxin-5-yl)-2-methoxy-pyridin-3-ylamino]-N-(6-oxo-piperidin-3-ylmethyl)-benzamide] were 4.59, 5.32 and 136 Response Units.
Taken in the same sequence, the figures for `COc1nc(-c2cccc3c2OCCO3)ccc1Nc1ccc(C(=O)NCC2CCN(Cc3ccccc3)CC2)cc1` [Example 185, N-(1-Benzyl-piperidin-4-ylmethyl)-4-[6-(2,3-dihydro-benzo[1,4]dioxin-5-yl)-2-methoxy-pyridin-3-ylamino]-benzamide] were 5.62, 5.92 and 122 Response Units.
For `COc1nc(-c2cccc3c2OCCO3)ccc1Nc1ccc(C(=O)NCC2CCN(C)CC2)cc1` [Example 158, 4-[6-(2,3-Dihydro-benzo[1,4]dioxin-5-yl)-2-methoxy-pyridin-3-ylamino]-N-(1-methyl-piperidin-4-ylmethyl)-benzamide], in that order: 4.69, 5.46 and 269 Response Units.
In the case of `COc1nc(-c2cccc3c2O[C@H](CNC(=O)C2CCOCC2)CO3)ccc1Nc1cccc(CN(C)C)c1` [Example 112, Tetrahydro-pyran-4-carboxylic acid {(R)-8-[5-(3-dimethylamino-methyl-phenylamino)-6-methoxy-pyridin-2-yl]-2,3-dihydro-benzo[1,4]dioxin-2-ylmethyl}-amide], the pIC50 in experiment [1] was 4.73; in experiment [2], 4.79. Moreover, in experiment [3], the “SPR Response Units” value came to 90 Response Units.
Taken in the same sequence, the figures for `COc1cccc(-c2cccc3c2O[C@@H](CNC(=O)c2ccc(OCCN(C)C)cc2)CO3)n1` [Example 41, 4-(2-Dimethylamino-ethoxy)-N-[(S)-8-(6-methoxy-pyridin-2-yl)-2,3-dihydrobenzo [1,4]dioxin-2-ylmethyl]-benzamide] were 4.32, 4.70 and 60 Response Units.
Taken in the same sequence, the figures for `COc1cccc(-c2cccc3c2OC(CN(Cc2ccc(OCCN(C)C)cc2)CC2CCOCC2)CO3)n1` (stereo not drawn) [Example 32, [2-(4-{[[8-(6-Methoxy-pyridin-2-yl)-2,3-dihydro-benzo[1,4]dioxin-2-ylmethyl]-(tetrahydro-pyran-4-ylmethyl)-amino]-methyl}-phenoxy)-ethyl]-dimethyl-amine] were 4.77, 5.15 and 85 Response Units.
For `COc1nc(-c2cccc3c2OCCO3)ccc1Nc1ccc(CNCC2CCNCC2)cc1` [Example 178, [6-(2,3-Dihydro-benzo[1,4]dioxin-5-yl)-2-methoxy-pyridin-3-yl]-(4-{[(piperidin-4-ylmethyl)-amino]-methyl}-phenyl)-amine], in that order: 5.74, 6.57 and 150 Response Units.
Turning to `COc1nc(-c2cccc3c2OCCO3)ccc1Nc1cccc(CNCc2cc[nH]n2)c1` [Example 209, [6-(2,3-Dihydro-benzo[1,4]dioxin-5-yl)-2-methoxy-pyridin-3-yl]-(3-{[(1H-pyrazol-3-ylmethyl)-amino]-methyl}-phenyl)-amine], the pIC50 in experiment [1] was 4.87; in experiment [2] it was 4.83. For the same molecule, the “SPR Response Units” value in experiment [3] worked out at 310 Response Units.
For `COc1nc(-c2cccc3c2OC(CNC(=O)C2CCOCC2)CO3)ccc1Nc1ccc(CNCC2COCCN2)cc1` (stereo not drawn) [Example 127, Tetrahydro-pyran-4-carboxylic acid{8-[6-methoxy-5-(4-{[(morpholin-3-ylmethyl)-amino]-methyl}-phenylamino)-pyridin-2-yl]-2,3-dihydro-benzo[1,4]dioxin-2-ylmethyl}-amide], in that order: 4.77, 4.72 and 205 Response Units.
With `COc1nc(-c2cccc3c2OC(CNC(=O)C2CCOCC2)CO3)ccc1Nc1ccc(CNCc2ccncc2)cc1` (stereo not drawn) [Example 119, Tetrahydro-pyran-4-carboxylic acid {8-[6-methoxy-5-(4-{[(pyridin-4-ylmethyl)-amino]-methyl}-phenylamino)-pyridin-2-yl]-2,3-dihydro-benzo[1,4]dioxin-2-ylmethyl}-amide], the pIC50 in experiment [1] was 5.00; in experiment [2], 4.95. For the same molecule, in experiment [3], the “SPR Response Units” value was determined as 349 Response Units.
Taken in the same sequence, the figures for `COc1nc(-c2cccc3c2OCCO3)ccc1Nc1ccc(CN2CCN(Cc3cccnc3)CC2)cc1` [Example 199, [6-(2,3-Dihydro-benzo[1,4]dioxin-5-yl)-2-methoxy-pyridin-3-yl]-[4-(4-pyridin-3-ylmethyl-piperazin-1-ylmethyl)-phenyl]-amine] were 4.62, 5.19 and 93 Response Units.
Take `COc1cc(NC(=O)C2CNCCO2)cc(-c2cccc3c2O[C@H](CNC(=O)c2ccc(CN4CCN(C)CC4)o2)CO3)n1` (stereo partly drawn) [Example 130, Morpholine-2-carboxylic acid{2-methoxy-6-[(R)-3-({[5-(4-methyl-piperazin-1-ylmethyl)-furan-2-carbonyl]-amino}-methyl)-2,3-dihydro-benzo[1,4]dioxin-5-yl]-pyridin-4-yl}-amide]: the pIC50 in experiment [1] is 4.87; in experiment [2], 4.92. For the same molecule, the “SPR Response Units” value in experiment [3] was 61 Response Units.
On to `CN1CCN(Cc2ccc(C(=O)NCC3COc4cccc(-c5cn(Cc6ccccc6)cn5)c4O3)o2)CC1` (stereo not drawn) [Example 138, 5-(4-Methyl-piperazin-1-ylmethyl)-furan-2-carboxylic acid[8-(1-benzyl-1H-imidazol-4-yl)-2,3-dihydro-benzo[1,4]dioxin-2-ylmethy]-amide], for which the figures for the pIC50 in experiment [1] and in experiment [2] were under 4.00 and 4.74, respectively. The “SPR Response Units” value in experiment [3] stood at 238 Response Units.
Taken in the same sequence, the figures for `COc1nc(-c2cccc3c2OCCO3)ccc1Nc1ccc(C(=O)NCc2cccnc2)cc1` [Example 175, 4-[6-(2,3-Dihydro-benzo[1,4]dioxin-5-yl)-2-methoxy-pyridin-3-ylamino]-N-pyridin-3-ylmethyl-benzamide] were 4.80, 5.09 and 63 Response Units.
Regarding `COc1cccc(-c2cccc3c2OC(CN(Cc2ccc(OCCN(C)C)cc2)Cc2cccnc2)CO3)n1` (stereo not drawn) [Example 31, {2-[4-({[8-(6-Methoxy-pyridin-2-yl)-2,3-dihydrobenzo[1,4]dioxin-2-ylmethyl]-pyridin3-ylmethyl-amino}-methyl)-phenoxy]-ethyl}-dimethyl-amine], the pIC50 was 4.74 in experiment [1] and 5.52 in experiment [2]. Besides, the “SPR Response Units” value in experiment [3] came to 119 Response Units.
For `c1cc2c(c(-c3ccc(Nc4ccc(CNCC5COCCN5)cc4)cc3)c1)OCCO2` (stereo not drawn) [Example 151, 4-(2,3-dihydrobenzo[b][1,4]dioxin-5-yl)-N-(4-(((morpholin-3-ylmethyl)amino)methyl)phenyl)aniline], in that order: 4.83, 5.87 and 150 Response Units.
Consider `COc1nc(-c2cccc3c2OCCO3)ccc1Nc1ccc(CNCC2CCNC(=O)C2)cc1` (stereo not drawn) [Example 201, 4-({4-[6-(2,3-Dihydro-benzo[1,4]dioxin-5-yl)-2-methoxy-pyridin-3-ylamino]-benzylamino}-methyl)-piperidin-2-one], for which the pIC50 in experiment [1] is 5.17; in experiment [2], 4.98. Moreover, the “SPR Response Units” value in experiment [3] is 209 Response Units.
Regarding `COc1nc(-c2cccc3c2OCCO3)ccc1Nc1cccc(CNCC2CCNC(=O)C2)c1` (stereo not drawn) [Example 194, 4-({3-[6-(2,3-Dihydro-benzo[1,4]dioxin-5-yl)-2-methoxy-pyridin-3-ylamino]-benzylamino}-methyl)-piperidin-2-one], the pIC50 in experiment [1] was under 3.82; in experiment [2], 4.95. For the same molecule, the “SPR Response Units” value in experiment [3] is recorded as 359 Response Units.
Taken in the same sequence, the figures for `COc1nc(-c2cccc3c2OCCO3)ccc1Nc1cccc(CN2CCN(Cc3cn[nH]c3)CC2)c1` [Example 208, [6-(2,3-Dihydro-benzo[1,4]dioxin-5-yl)-2-methoxy-pyridin-3-yl]-{3-[4-(1H-pyrazol-4-ylmethyl)-piperazin-1-ylmethyl]-phenyl}-amine] were 4.76, 5.24 and 1266 Response Units.
